From US7374875B2, “Peptides having affinity for the gp120 viral protein and use thereof” (priority 2001, dated 2008)

System: PHA-P-activated PBMCs
Test: Toxicity test, viability of PHA-P-activated PBMCs
Format: cell-based, human
Conditions: at the doses tested
Experimental: The PBMCs are separated from the other represented elements of the blood by ficoll (MSL 2000, Eurobio) gradient centrifiguation: 30 ml of blood, from a healthy donor, diluted by a third are deposited onto a 20 ml ficoll cushion. After centrifugation for 20 min at 850 g, the ring of PBMCs is removed and then washed twice with RPMI 1640, after centrifugation at 750 g for 10 min and at 400 g for 5 min. The PBMCs are then activated for 48 h with 1 μg/ml of phytohaemagglutinin-P (PHA-P; Difco Laboratories). The PBMCs are cultured at +37° C., in an atmosphere saturated with humidity, under 5% CO2. At the end of the 48 hours of mitogenic activation, they are cultured in medium B. Throughout the culturing, the culture supernatants are sampled, and the culture media are renewed every three or four days. At each renewal of the culture media, the cell viability is evaluated by microscopic observation.
In all the experiments, the effects of the new molecules were compared to those of AZT. […] CD4 mimetic toxicity tests were also carried out on the same cells.

Cc1cn([C@H]2C[C@H](N=[N+]=[N-])[C@@H](CO)O2)c(=O)[nH]c1=O [AZT]
viability of the PHA-P-activated PBMCs (in words): none of the compounds, AZT, SAH-CD4 or anti-CD4 mimetics, decreased the viability
